Results on three compounds are retold here after article PMC9556824, “Design, synthesis and computational study of new benzofuran hybrids as dual PI3K/VEGFR2 inhibitors targeting cancer” (Scientific Reports, 2022).

Each structure is given as a SMILES string. Several values for one entry are separate records, joined by “and”; a condition that tells them apart may be missing. Equal entries are not always repeated. Where two headings read alike, the source gives them in different places.

The test system of data set [1] is human prostate cancer (PC3). As to the kind of experiment: Antitumor screening using MTT assay. Particulars: Homo sapiens.
Text: (§3) Hepatocellular carcinoma (HePG2), mammary gland breast cancer (MCF-7), epithelioid carcinoma cervix cancer (Hela), and human prostate cancer were included on the panel (PC3). […] The cell lines were obtained from the American Type Culture Collection (ATCC) through VACSERA, a Cairo-based holding firm for biological goods and vaccines.
(§4) The panel consisted of hepatocellular carcinoma (HePG2), mammary gland breast cancer (MCF-7), epithelioid carcinoma cervix cancer (Hela) and human prostate cancer (PC3). Human lung fibroblast (WI38) was used to assay the cytotoxicity effect on normal cell. The cell lines were obtained from ATCC via Holding company for biological products and vaccines (VACSERA), Cairo, Egypt. The cytotoxic activity was defined as the concentration of the compound that causes 50% growth inhibition compared with the growth of untreated cells.
Data set [2] relates to epithelioid carcinoma cervix cancer (Hela). Kind of data set: Antitumor screening using MTT assay. Conditions: Homo sapiens, HeLa.
The subject of data set [3] is Hela cells. Kind of data set: Detection of apoptosis (Annexin V-FITC/PI). The data set is classed as cell-based, human. As for the experimental part:
In Hela cells, compound 8 induced an early apoptotic effect with 1.79% at 24 h. Also, the enhanced late apoptotic induction with 14.11% by 83-fold compared to the Hela control cell (0.17%). On other hand, necrotic effect in Hela at 24 h was induced by compounds 8 with 8.81% compared to the control cells (1.15%).
(§1) Annexin V-FITC and PI apoptosis kit were used to detect apoptosis (eBioscience™, San Diego, CA, USA). On a six well plate, Mcf cells were plated at a density of 600,000 cells/ml. The cells were treated with compound 8 at […] after 24 h of incubation. The solvent control consisted of cells developed in medium containing an equivalent volume of DMSO. In accordance with the instructions supplied by the Annexin V-FITC and PI apoptosis kit, the cells were stained with an Annexin V-FITC conjugate and propidium iodide (PI) after 24 h. The percentage of apoptotic, necrotic, and alive cells was then calculated. By using a flow cytometer (NovoCyte, ACEA Biosciences Inc, San Diego, CA, US) and the NovoExpress 1.3.0 software (ACEA Biosciences Inc, San Diego, CA, US), the cells' released fluorescence was examined. Each point on the population plot ("dot plot") corresponds to a single event with a particular fluorescence signal in relation to the axes: Annexin V-FITC green fluorescence.

In data set [4] the test system is mammary gland breast cancer (MCF-7). As to the kind of experiment: Antitumor screening using MTT assay. Conditions: Homo sapiens.
Data set [5] relates to human lung fibroblast (WI38). Kind of data set: In vitro cytotoxicity against human normal cell line (MTT). In kind it is cell-based. Particulars: Homo sapiens, WI-38, human normal cell line WI38; mean ± SD, n = 3. The source says:
(§2) The anticancer agent's selectivity for cancer cells is a critical consideration for any researcher, as it can decrease the molecule's adverse effects on normal human cells.

Test in data set [6]: as above
In kind it is cell-based. Particulars: human, WI38, read-out: Average of Relative viability of cells (%).
Text: as §2

For data set [7], the system named is HePG2, MCF-7, Hela, PC3 cell lines. As to the kind of experiment: Antitumor screening using MTT assay, statements across several cell lines. In kind it is cell-based, human. Particulars: Homo sapiens, PC-3; read-out: IC50 range against HePG and PC3 cell lines.
Text: as §3, §4
In data set [8] the test system is Hepatocellular carcinoma (HePG2). As to the kind of experiment: Antitumor screening using MTT assay. Particulars: Homo sapiens. In kind it is cell-based, human.
Text: as §3, §4
Another data set has as its target human PI3Kα (Homo sapiens, UniProt P42336). Kind of data set: Human PI3Kα enzyme inhibition assay (ELISA).
For the next data set, the target named is human VEGFR-2 (Homo sapiens, UniProt P35968). As to the kind of experiment: Human VEGFR-2 enzyme inhibition assay (ELISA).
Data set [9] concerns Hela cells. As to the kind of experiment: Cell cycle arrest analysis. The data set is classed as cell-based, human. As to the method:
So, compound 8 was assessed its activity on cell cycle distribution and induction of apoptosis in different phases of Hela cells.
as §1
Researcher : Dr.Omar El-Khouly email : dr.kholy93@gmail.com mob. 01278084495
Assay : Cell Cycle Analysis
Kit used : ab139418_Propidium Iodide Flow Cytometry Kit/BD
Assay samples : Cell culture
code IC50 %G0-G1 %S %G2/M %Pre-G1 Comment
(also on this page, place not known: 0 20 40 60 % OE -G12 /Hela Cont. Hela DNA content %G0-G1 %S %G2/M %Pre-G1)
(1 picture or pasted object on this page, not shown here)

Another data set has as its system MCF-7. Details: method as in PMID 25086915. Conditions: read-out: IC50 against MCF-7; cited from earlier work.
A further data set deals with Hela. Also on record: method as in PMID 25086915. Conditions: read-out: IC50 against Hela; cited from earlier work.
Another data set concerns VEGFR-2. Conditions: read-out: IC50 against VEGFR-2; cited from earlier work.
The mark [10] stands for this setting: read-out: Average of Relative viability of cells (%).
Where [11] appears, read: MCF7, read-out: Average of Relative viability of cells (%).

Sequence of human VEGFR-2 (P35968 20-1356): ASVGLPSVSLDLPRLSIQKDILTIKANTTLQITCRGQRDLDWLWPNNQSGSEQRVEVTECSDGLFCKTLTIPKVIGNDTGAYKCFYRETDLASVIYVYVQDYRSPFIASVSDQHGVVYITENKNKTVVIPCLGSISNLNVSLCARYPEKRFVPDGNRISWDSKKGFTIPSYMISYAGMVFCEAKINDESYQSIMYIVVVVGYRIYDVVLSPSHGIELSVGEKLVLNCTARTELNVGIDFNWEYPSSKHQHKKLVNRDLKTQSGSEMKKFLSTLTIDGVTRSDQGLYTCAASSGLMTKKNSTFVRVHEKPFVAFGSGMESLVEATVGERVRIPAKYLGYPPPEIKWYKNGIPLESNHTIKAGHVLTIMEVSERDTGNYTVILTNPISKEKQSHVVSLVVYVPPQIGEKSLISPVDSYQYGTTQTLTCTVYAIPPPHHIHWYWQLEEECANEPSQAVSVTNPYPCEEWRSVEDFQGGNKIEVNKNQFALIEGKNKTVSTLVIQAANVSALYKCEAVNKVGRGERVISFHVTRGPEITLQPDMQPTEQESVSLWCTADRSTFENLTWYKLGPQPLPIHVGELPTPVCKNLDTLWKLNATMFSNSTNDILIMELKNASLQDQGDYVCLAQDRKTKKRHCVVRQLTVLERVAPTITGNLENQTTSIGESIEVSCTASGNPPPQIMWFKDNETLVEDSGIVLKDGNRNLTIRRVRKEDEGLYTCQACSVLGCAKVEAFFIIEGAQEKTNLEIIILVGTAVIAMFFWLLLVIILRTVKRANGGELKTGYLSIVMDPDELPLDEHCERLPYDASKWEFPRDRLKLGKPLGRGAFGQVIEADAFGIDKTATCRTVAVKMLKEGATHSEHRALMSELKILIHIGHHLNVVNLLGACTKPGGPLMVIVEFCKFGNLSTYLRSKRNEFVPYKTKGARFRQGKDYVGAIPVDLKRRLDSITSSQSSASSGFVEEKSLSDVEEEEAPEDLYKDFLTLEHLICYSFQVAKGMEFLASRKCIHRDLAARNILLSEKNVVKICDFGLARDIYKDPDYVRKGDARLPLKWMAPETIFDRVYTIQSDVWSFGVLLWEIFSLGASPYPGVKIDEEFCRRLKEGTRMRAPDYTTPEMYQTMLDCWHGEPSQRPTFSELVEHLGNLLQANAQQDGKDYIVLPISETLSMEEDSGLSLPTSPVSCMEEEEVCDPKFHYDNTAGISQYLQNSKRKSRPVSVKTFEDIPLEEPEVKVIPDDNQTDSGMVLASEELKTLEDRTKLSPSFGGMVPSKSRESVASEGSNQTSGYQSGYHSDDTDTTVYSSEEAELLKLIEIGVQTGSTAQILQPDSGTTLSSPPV
Sequence of human PI3Kα (P42336 whole entry): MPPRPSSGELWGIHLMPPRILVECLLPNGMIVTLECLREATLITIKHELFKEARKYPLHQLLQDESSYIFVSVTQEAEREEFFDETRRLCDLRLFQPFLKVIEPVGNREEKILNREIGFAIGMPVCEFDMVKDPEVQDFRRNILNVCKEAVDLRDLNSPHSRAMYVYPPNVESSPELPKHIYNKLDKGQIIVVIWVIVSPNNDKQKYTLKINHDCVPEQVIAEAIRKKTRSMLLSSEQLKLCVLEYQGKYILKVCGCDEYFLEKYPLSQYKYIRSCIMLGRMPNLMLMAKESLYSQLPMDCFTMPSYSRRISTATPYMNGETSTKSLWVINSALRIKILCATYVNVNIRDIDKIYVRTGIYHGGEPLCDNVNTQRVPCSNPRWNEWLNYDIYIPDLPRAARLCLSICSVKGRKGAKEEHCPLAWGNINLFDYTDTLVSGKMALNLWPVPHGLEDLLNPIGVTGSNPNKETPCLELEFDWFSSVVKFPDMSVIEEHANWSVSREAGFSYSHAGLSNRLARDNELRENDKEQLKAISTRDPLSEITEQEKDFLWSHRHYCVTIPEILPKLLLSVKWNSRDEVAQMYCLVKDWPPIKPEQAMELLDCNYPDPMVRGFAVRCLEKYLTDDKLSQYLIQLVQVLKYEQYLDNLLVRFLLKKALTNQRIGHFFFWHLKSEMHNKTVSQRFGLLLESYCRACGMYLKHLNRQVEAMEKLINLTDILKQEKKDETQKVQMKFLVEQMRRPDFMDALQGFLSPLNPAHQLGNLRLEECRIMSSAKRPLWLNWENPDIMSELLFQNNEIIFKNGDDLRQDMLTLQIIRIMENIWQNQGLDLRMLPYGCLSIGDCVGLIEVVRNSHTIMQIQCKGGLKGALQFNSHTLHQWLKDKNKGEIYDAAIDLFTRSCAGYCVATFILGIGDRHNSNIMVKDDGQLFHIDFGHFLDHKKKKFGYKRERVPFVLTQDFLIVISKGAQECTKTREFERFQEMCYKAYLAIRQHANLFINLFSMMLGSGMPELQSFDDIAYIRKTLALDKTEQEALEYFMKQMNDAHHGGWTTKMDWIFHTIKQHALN
Sequence of human PI3Kα (P27986 whole entry partner): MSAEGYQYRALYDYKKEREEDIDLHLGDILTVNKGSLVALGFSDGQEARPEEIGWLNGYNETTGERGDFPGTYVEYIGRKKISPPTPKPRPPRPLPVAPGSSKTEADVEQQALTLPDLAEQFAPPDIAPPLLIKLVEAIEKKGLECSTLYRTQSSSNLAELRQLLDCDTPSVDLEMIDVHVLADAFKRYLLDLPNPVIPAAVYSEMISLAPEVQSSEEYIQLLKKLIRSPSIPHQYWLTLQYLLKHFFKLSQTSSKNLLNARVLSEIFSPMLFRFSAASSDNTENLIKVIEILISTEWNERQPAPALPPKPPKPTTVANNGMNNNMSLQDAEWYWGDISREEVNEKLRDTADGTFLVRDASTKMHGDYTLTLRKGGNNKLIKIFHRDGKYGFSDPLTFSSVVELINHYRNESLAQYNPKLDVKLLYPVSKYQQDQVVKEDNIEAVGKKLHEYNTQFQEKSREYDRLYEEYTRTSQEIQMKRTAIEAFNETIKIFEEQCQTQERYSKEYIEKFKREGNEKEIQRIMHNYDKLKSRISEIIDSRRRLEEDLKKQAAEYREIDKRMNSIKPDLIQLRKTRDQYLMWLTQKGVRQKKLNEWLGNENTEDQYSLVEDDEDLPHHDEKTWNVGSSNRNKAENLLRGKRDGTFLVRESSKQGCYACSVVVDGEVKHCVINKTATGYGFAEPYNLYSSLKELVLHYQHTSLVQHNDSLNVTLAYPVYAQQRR
Procedure for human PI3Kα: (§5) PI3Kα and VEGFR-2 activity were verified by enzyme-linked immunosorbent assay (ELISA) assay technique. […] Then, the mean absorbance of each group of standard and tested compounds was determined. The standard curve was drawn on log–log paper with the absorbance on the Y-axis and the standard concentration on the X-axis.
Procedure for human VEGFR-2: as §5

`C/C(=N\NC(=S)Nc1ccc(Cl)cc1)c1cc2ccccc2o1` [Compound 8, (E)-2-(1-(benzofuran-2-yl)ethylidene)-N-(4-chlorophenyl)hydrazine-1-carbothioamide] returned a melting point of 207 to 209 °C. Also, in [1] (setting [10]), the viability at 1.56 µM turned out to be 100%, the viability at 3.125 µM is 93.7%, the viability at 6.25 µM was 72.9% and the viability at 12.5 µM was 51.6%. Moreover, in data set [1] (setting [10]), the viability at 25 µM was 39.2%, the viability at 50 µM amounted to 27.1% and the viability at 100 µM was determined as 19.3%. Also, the IC50 in [1] (read-out: In-vitro cytotoxicity IC50 (µM) PC3) amounted to 17.5 ± 1.3 µM. In addition, in data set [2] (setting [10]), the viability at 1.56 µM worked out at 88.6%, the viability at 3.125 µM came to 76.1%, the viability at 6.25 µM stood at 53.7% and the viability at 12.5 µM was 32.8%. Moreover, in data set [2] (setting [10]), the viability at 25 µM is 24.5%, the viability at 50 µM came to 16% and the viability at 100 µM amounted to 8.2%. Besides, in [2] (read-out: In-vitro cytotoxicity IC50 (µM) Hela), the IC50 was 7.94 ± 0.5 µM. The late apoptotic induction in the data set with Hela cells [3] is 14.11%. Also, in the data set with Hela cells [3] (24 h), the early apoptotic effect came to 1.79% and the necrotic effect is on record as 8.81%. Also, in the data set on Hela cells [3] (control 0.17%), the “late apoptotic induction, fold compared to Hela control cell” value amounted to 83 fold. Moreover, in [4] (setting [11]), the viability at 1.56 µM was 99.1%, the viability at 3.125 µM was determined as 79.8%, the viability at 6.25 µM worked out at 65.7% and the viability at 12.5 µM is 42.9%. Further, in [4] (setting [11]), the viability at 25 µM is 28.3%, the viability at 50 µM stood at 21.2% and the viability at 100 µM amounted to 13.7%. The IC50 in data set [4] (MCF7, read-out: In-vitro cytotoxicity IC50 (µM) MCF-7) turned out to be 11.6 ± 0.9 µM. This compound displayed a half-inhibitory concentration (IC50) in [5] of 48.2 ± 2.8 µM. The viability at 3.125 µM in [6] (WI38 human lung fibroblast cells (normal cell line), Conc. 3.125 µM) amounted to 100%. For the same compound, the viability at 6.25 µM in data set [6] (WI38 human lung fibroblast cells (normal cell line), Conc. 6.25 µM) came out at 89.3%. In addition, the viability at 12.5 µM in data set [6] (WI38 human lung fibroblast cells (normal cell line), Conc. 12.5 µM) came to 75.6%. In addition, the viability at 25 µM in data set [6] (WI38 human lung fibroblast cells (normal cell line), Conc. 25 µM) turned out to be 62.7%. The viability at 50 µM in data set [6] (WI38 human lung fibroblast cells (normal cell line), Conc. 50 µM) was 48.2%. For the same compound, the viability at 100 µM in data set [6] (WI38 human lung fibroblast cells (normal cell line), Conc. 100 µM) turned out to be 36.4%. In addition, the viability at 1.56 µM in data set [6] (WI38 normal lung fibroblast cells, Conc. 1.56 µM) stood at 100%. In [7], the IC50 fell in the range of 11 to 17 µM. In data set [8] (Conc. 1.56 µM, read-out: Average of Relative viability of cells (%)), the viability at 1.56 µM is 99.5%. In addition, the viability at 3.125 µM in [8] (Conc. 3.125 µM, read-out: Average of Relative viability of cells (%)) came to 81.4%. For the same compound, in [8] (Conc. 6.25 µM, read-out: Average of Relative viability of cells (%)), the viability at 6.25 µM came out at 67.3%. The viability at 12.5 µM in data set [8] (Conc. 12.5 µM, read-out: Average of Relative viability of cells (%)) worked out at 24.9%. In addition, the viability at 25 µM in [8] (Conc. 25 µM, read-out: Average of Relative viability of cells (%)) turned out to be 29.1%. Moreover, the viability at 50 µM in data set [8] (Conc. 50 µM, read-out: Average of Relative viability of cells (%)) stood at 20.8%. Moreover, in data set [8] (Conc. 100 µM, read-out: Average of Relative viability of cells (%)), the viability at 100 µM stood at 13.2%. The IC50 in data set [8] (mean ± SD, n = 3, read-out: In-vitro cytotoxicity IC50 (µM) HePG2) came to 9.73 ± 0.7 µM. On human PI3Kα (PI3K-α IC50 ng/ml, supplement lab report), this compound showed an IC50 of 6.43 nM. The compound further yielded an IC50 against human PI3Kα (PI3Kα enzymatic IC50 (nM), mean of triplicate) of 2.21 ± 0.11 nM. On human PI3Kα (conc 0.1 (unit not given)), this compound displayed a PI3K-α %inh of 22.1%. The PI3K-α %inh at human PI3Kα (conc 1 (unit not given)) is 42.7%. Besides, at human PI3Kα (conc 10 (unit not given)), the PI3K-α %inh is reported as 67%. The compound also came in with a PI3K-α %inh on human PI3Kα (conc 100 (unit not given)) of 80.7%. On human VEGFR-2 (VEGFR2 IC50 ng/ml, supplement lab report), this compound had an IC50 of 250 nM. The IC50 against human VEGFR-2 (VEGFR-2 enzymatic IC50 (nM), mean of triplicate) was 68 nM and 86 nM. The compound further came in with a vegfr2 %inh at human VEGFR-2 (conc 0.01 (unit not given)) of 28.7%. Also, the vegfr2 %inh on human VEGFR-2 (conc 0.1 (unit not given)) was found to be 52.7%. This compound showed a vegfr2 %inh at human VEGFR-2 (conc 1 (unit not given)) of 75.3%. The compound further registered a vegfr2 %inh on human VEGFR-2 (conc 10 (unit not given)) of 90.4%. In the data set with Hela cells [9], the “Cell cycle analysis comment” value is “Pre-G1 apoptosis and cell growth arrest at G1/S phase”; the “Cell cycle distribution (%) %G0–G1” value was found to be 47.06%; the “Cell cycle distribution (%) %G2/M” value is 1.71%. The “Cell cycle distribution (%) %S” value in the data set with Hela cells [9] (24 h) is listed as 51.23%. Also, in the data set on Hela cells [9] (after 48 h exposure), the “Cell cycle distribution (%) %Pre-G1” value is on record as 24.71%. In addition, in the data set on Hela cells [9] (listed as OE-G12), the “Cell cycle analysis comment” value is on record as “cell growth arrest@G1/S phase”.

As to `O=C(CN1CCN(c2nn3c(-c4ccccc4)nnc3c3ccccc23)CC1)Nc1ccc(F)cc1` [Compound VII], the IC50 with MCF-7 is 3.4 µM; in the data set with Hela, 2 µM.

Regarding `COc1c(C(=O)/C=C/c2ccc([N+](=O)[O-])cc2)c(O)cc2occc12` [Compound V], in the data set on VEGFR-2, the IC50 was 0.001 µM.
